As usually defined, the melting point is the temperature, or range, at which the solid turns liquid.

Where two headings read alike, the source gives them in different places.

Series [1] has as its system Smn protein. Kind of series: Smn protein assay in cultured cells (SMN HTRF). The class given is cell-based, human. The conditions noted are these: 48 hours; for EC1.5x (concentration giving 1.5-fold Smn protein increase): SMA Type 1 patient fibroblast cells (GM03813), 7-point concentration curve, SMN HTRF, concentration producing 1.5 times Smn protein vs DMSO vehicle control, read-out: EC1.5x for Smn protein expression; for maximum fold (Fold) increase of Smn protein: SMA patient fibroblast cells, 7-point concentration data, fold increase relative to vehicle control (SMN HTRF). The essentials: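 Lysates in RIPA with protease inhibitors are incubated overnight at room temperature with HTRF anti-SMN antibodies. EC1.5x is derived from fold increase in ΔF over vehicle.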
(In general: Time-resolved FRET reads energy transfer from a long-lived donor to a nearby acceptor.)

Series [2] relates to SMN2 minigene (full length SMN2 minigene mRNA containing SMN2 exon 7). The experiment in a line: SMN2 minigene mRNA splicing RT-qPCR assay in cultured cells. It is filed as cell-based, human. The conditions noted are these: Homo sapiens, HEK293-H, read-out: EC1.5x for production of full length SMN2 mRNA. The essentials:
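HEK293H cells stably carrying the SMN2-A minigene treated 24 h at 37° C with compound (DMSO, 200× stock), then lysed. Multiplex RT-qPCR (SMN primers 0.4 μM final; 40 cycles) measures full-length exon 7-containing minigene mRNA, normalized to GAPDH and to vehicle; EC1.5x derived and binned by stars.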
(In general: In qPCR the cycle at which signal appears reflects the starting amount.)

The mark [3] stands for this setting: HEK293H cells stably transfected with SMN2-A minigene, 24 hours, 7-point concentration curve, 1.5-fold relative to vehicle-treated cells.

On to `Cc1cn2cc(-c3cc4ccc(OCCN5CCC(O)CC5)cc4oc3=O)nc2c(C)n1` [Compound 957, 3-(6,8-dimethylimidazo[1,2-a]pyrazin-2-yl)-7-[2-(4-hydroxypiperidin-1-yl)ethoxy]-2H-chromen-2-one], for which the melting point lay in the range of 187 to 190 °C. Further, in series [1], the EC1.5x (concentration giving 1.5-fold Smn protein increase) is 300 to 1000 nM; the “maximum fold (Fold) increase of Smn protein” value (from here on “maximum fold (Fold) increase”) was “**** (fold increase between >1.5 and ≤1.65)”. Moreover, the EC (1.5-fold) in series [2] (setting [3]) is less than 0.1 µM.

The compound `Cc1cn2cc(-c3cc4ccc(C5CCN(C(C)C)CC5)cc4oc3=O)nc2c(C)n1` [Cpd 773, 3-(6,8-dimethylimidazo[1,2-a]pyrazin-2-yl)-7-[1-(propan-2-yl)piperidin-4-yl]-2H-chromen-2-one] showed a melting point of 206 to 211 °C. In addition, in series [1], the EC1.5x (concentration giving 1.5-fold Smn protein increase) is less than 300 nM; the “maximum fold (Fold) increase” value was “**** (fold increase between >1.5 and ≤1.65)”. In series [2] (setting [3]), the EC (1.5-fold) was less than 0.1 µM.

The compound `CN1CCN(c2cc(F)c3cc(-c4cn5ccsc5n4)c(=O)oc3c2)CC1` [Compound 372, 5-fluoro-3-(imidazo[2,1-b][1,3]thiazol-6-yl)-7-(4-methylpiperazin-1-yl)-2H-chromen-2-one] returned a melting point of 268 to 271 °C. Also, in series [1], the “maximum fold (Fold) increase” value was “** (fold increase between >1.2 and ≤1.35)”. Also, the EC (1.5-fold) in series [2] (setting [3]) fell in the range of 0.1 to 0.3 µM.

Turning to `CC(C)N1CCN(c2ccc3cc(-c4nc5ccccc5s4)c(=O)oc3c2)CC1` [Compound 15, 3-(1,3-benzothiazol-2-yl)-7-[4-(propan-2-yl)piperazin-1-yl]-2H-chromen-2-one], the melting point lay within 238 to 246 °C. The “maximum fold (Fold) increase” value in series [1] was “* (maximum fold increase of ≤1.2)”. In series [2] (setting [3]), the EC (1.5-fold) was in the range of 3 to 30 µM.

`Cc1nc(Cl)cn2cc(-c3cc4ccc(N5CCN(C)[C@@H](C)C5)cc4oc3=O)nc12` [Compound 727, 3-(6-chloro-8-methylimidazo[1,2-a]pyrazin-2-yl)-7-[(3S)-3,4-dimethylpiperazin-1-yl]-2H-chromen-2-one] registered a melting point of 251 to 253 °C. Moreover, in series [1], the EC1.5x (concentration giving 1.5-fold Smn protein increase) lay within 1000 to 3000 nM; the “maximum fold (Fold) increase” value is “*** (fold increase between >1.35 and ≤1.5)”. In addition, the EC (1.5-fold) in series [2] (setting [3]) was 0.1 to 0.3 µM.

Compound `Cc1cn2cc(-c3cc4ccc(N5CCN6C[C@H](O)C[C@H]6C5)cc4oc3=O)nc2c(C)n1` [Compound 758, 3-(6,8-dimethylimidazo[1,2-a]pyrazin-2-yl)-7-[(7R,8aS)-7-hydroxyhexahydropyrrolo[1,2-a]pyrazin-2(1H)-yl]-2H-chromen-2-one] registered a melting point of 285 to 287 °C. Also, the “maximum fold (Fold) increase” value in series [1] is listed as “* (maximum fold increase of ≤1.2)”. Moreover, the EC (1.5-fold) in series [2] (setting [3]) lay within 0.3 to 1 µM.

For the compound `CCN(CC)CCCc1ccc2cc(-c3cn4cc(C)nc(C)c4n3)c(=O)oc2c1` [Compound 969, 7-[3-(diethylamino)propyl]-3-(6,8-dimethylimidazo[1,2-a]pyrazin-2-yl)-2H-chromen-2-one], the melting point lay within 165 to 168 °C. Further, in series [1], the EC1.5x (concentration giving 1.5-fold Smn protein increase) was less than 300 nM; the “maximum fold (Fold) increase” value was “**** (fold increase between >1.5 and ≤1.65)”. Further, the EC (1.5-fold) in series [2] (setting [3]) was less than 0.1 µM.

`Cc1cn2cc(-c3cc4ccc(CCCN5CCNCC5)cc4oc3=O)nc2c(C)n1` [Compound 859, 3-(6,8-dimethylimidazo[1,2-a]pyrazin-2-yl)-7-[3-(piperazin-1-yl)propyl]-2H-chromen-2-one] showed a melting point of 145 to 153 °C. Further, in series [1], the EC1.5x (concentration giving 1.5-fold Smn protein increase) lay in the range of 300 to 1000 nM; the “maximum fold (Fold) increase” value was “**** (fold increase between >1.5 and ≤1.65)”. For the same compound, in series [2] (setting [3]), the EC (1.5-fold) was 0.1 to 0.3 µM.

In the case of `Cc1cn2cc(-c3cc4ccc(N5CC(N(C)C)C5)cc4oc3=O)nc2c(C)n1` [Cpd 943, 7-[3-(dimethylamino)azetidin-1-yl]-3-(6,8-dimethylimidazo[1,2-a]pyrazin-2-yl)-2H-chromen-2-one], the melting point was in the range of 246 to 250 °C. For the same compound, in series [1], the EC1.5x (concentration giving 1.5-fold Smn protein increase) was less than 300 nM; the “maximum fold (Fold) increase” value was “**** (fold increase between >1.5 and ≤1.65)”. Moreover, the EC (1.5-fold) in series [2] (setting [3]) was less than 0.1 µM.

As to `O=c1oc2cc(N3CCNCC3)ccc2cc1-c1ccnc(Cl)c1` [Compound 180, 3-(2-chloropyridin-4-yl)-7-(piperazin-1-yl)-2H-chromen-2-one], the melting point lay in the range of 190 to 192 °C. The “maximum fold (Fold) increase” value in series [1] was “* (maximum fold increase of ≤1.2)”. Also, the EC (1.5-fold) in series [2] (24 h) was less than 0.1 µM.

`CN1CCCN(c2ccc3cc(-c4cn5ccsc5n4)c(=O)oc3c2)CC1` [Compound 203, 3-(imidazo[2,1-b][1,3]thiazol-6-yl)-7-(4-methyl-1,4-diazepan-1-yl)-2H-chromen-2-one] came in with a melting point of 228 to 231 °C. In addition, in series [1], the EC1.5x (concentration giving 1.5-fold Smn protein increase) lay within 300 to 1000 nM; the “maximum fold (Fold) increase” value is “**** (fold increase between >1.5 and ≤1.65)”. In addition, in series [2] (setting [3]), the EC (1.5-fold) is 0.1 to 0.3 µM.

`COc1cccc(-c2cc3ccc(N4CCCN(C)CC4)cc3oc2=O)n1` [Compound 359, 3-(6-methoxypyridin-2-yl)-7-(4-methyl-1,4-diazepan-1-yl)-2H-chromen-2-one] came in with a melting point of 155 to 158 °C. Also, in series [1], the “maximum fold (Fold) increase” value was “* (maximum fold increase of ≤1.2)”. Moreover, the EC (1.5-fold) in series [2] (setting [3]) was 3 to 30 µM.

`COc1cc(-c2cc3ccc(N4CCN[C@@H](C)C4)cc3oc2=O)ccc1C` [Compound 575, 3-(3-methoxy-4-methylphenyl)-7-[(3S)-3-methylpiperazin-1-yl]-2H-chromen-2-one] yielded a melting point of 166 to 170 °C. Also, the “maximum fold (Fold) increase” value in series [1] was “* (maximum fold increase of ≤1.2)”. Moreover, the EC (1.5-fold) in series [2] (setting [3]) was in the range of 0.3 to 1 µM.

`CCN1CCC(c2ccc3cc(-c4cn5cc(C)nc(C)c5n4)c(=O)oc3c2)CC1` [Compound 749, 3-(6,8-dimethylimidazo[1,2-a]pyrazin-2-yl)-7-(1-ethylpiperidin-4-yl)-2H-chromen-2-one] returned a melting point of 218 to 223 °C. Besides, in series [1], the EC1.5x (concentration giving 1.5-fold Smn protein increase) is less than 300 nM and the “maximum fold (Fold) increase” value is “***** (fold increase >1.65)”. Besides, the EC (1.5-fold) in series [2] (setting [3]) was less than 0.1 µM.

In turn, `Cn1cc(-c2cc3ccc(N4CCNCC4)cc3oc2=O)c2ccccc21` [Compound 258, 3-(1-methyl-1H-indol-3-yl)-7-(piperazin-1-yl)-2H-chromen-2-one] had a melting point of 201 to 203 °C. For the same compound, the “maximum fold (Fold) increase” value in series [1] is listed as “* (maximum fold increase of ≤1.2)”. In addition, the EC (1.5-fold) in series [2] (setting [3]) lay within 0.3 to 1 µM.

`Cc1cn2cc(-c3cc4ccc(N5CC[C@H](CN)C5)cc4oc3=O)nc2c(C)n1` [Compound 950, 7-[(3R)-3-(aminomethyl)pyrrolidin-1-yl]-3-(6,8-dimethylimidazo[1,2-a]pyrazin-2-yl)-2H-chromen-2-one]: the melting point was 196 to 198 °C. In series [1], the EC1.5x (concentration giving 1.5-fold Smn protein increase) was in the range of 1000 to 3000 nM; the “maximum fold (Fold) increase” value is “*** (fold increase between >1.35 and ≤1.5)”. In addition, the EC (1.5-fold) in series [2] (setting [3]) fell in the range of 0.1 to 0.3 µM.

On to `Cc1cc2cc(-c3cc4ccc(N5CCCN(C)CC5)cc4oc3=O)oc2c(C)n1` [Compound 775, 3-(5,7-dimethylfuro[2,3-c]pyridin-2-yl)-7-(4-methyl-1,4-diazepan-1-yl)-2H-chromen-2-one], for which the melting point was 243 to 245 °C. Further, in series [1], the EC1.5x (concentration giving 1.5-fold Smn protein increase) was less than 300 nM; the “maximum fold (Fold) increase” value was “**** (fold increase between >1.5 and ≤1.65)”. In addition, the EC (1.5-fold) in series [2] (setting [3]) was less than 0.1 µM.

Turning to `O=c1oc2cc(N3CCN4CCC3CC4)ccc2cc1-c1cn2cccnc2n1` [Compound 440, 7-(1,4-diazabicyclo[3.2.2]non-4-yl)-3-(imidazo[1,2-a]pyrimidin-2-yl)-2H-chromen-2-one], the melting point was more than 300 °C. Besides, in series [1], the “maximum fold (Fold) increase” value is “* (maximum fold increase of ≤1.2)”. For the same compound, in series [2] (24 h), the EC (1.5-fold) was in the range of 1 to 3 µM.

Turning to `CCN1CCN(c2ccc3cc(-c4cc5cc(C)nc(C)c5o4)c(=O)oc3c2)CC1` [Compound 788, 3-(5,7-dimethylfuro[2,3-c]pyridin-2-yl)-7-(4-ethylpiperazin-1-yl)-2H-chromen-2-one], the melting point fell in the range of 196 to 198 °C. In series [1], the EC1.5x (concentration giving 1.5-fold Smn protein increase) was less than 300 nM; the “maximum fold (Fold) increase” value is “**** (fold increase between >1.5 and ≤1.65)”. In addition, in series [2] (setting [3]), the EC (1.5-fold) is less than 0.1 µM.

Compound `Cc1cc2cc(-c3cc4ccc(N5CCN(C)[C@H](C)C5)cc4oc3=O)oc2c(C)n1` [Compound 807, 3-(5,7-dimethylfuro[2,3-c]pyridin-2-yl)-7-[(3R)-3,4-dimethylpiperazin-1-yl]-2H-chromen-2-one] showed a melting point of 199 to 204 °C. In series [1], the EC1.5x (concentration giving 1.5-fold Smn protein increase) is less than 300 nM and the “maximum fold (Fold) increase” value is “***** (fold increase >1.65)”. Further, the EC (1.5-fold) in series [2] (setting [3]) is less than 0.1 µM.

The compound `O=c1oc2cc(N3CCCNCC3)ccc2cc1-c1cn2cccc(Cl)c2n1` [Compound 212, 3-(8-chloroimidazo[1,2-a]pyridin-2-yl)-7-(1,4-diazepan-1-yl)-2H-chromen-2-one] yielded a melting point of 170 to 173 °C. Moreover, in series [1], the EC1.5x (concentration giving 1.5-fold Smn protein increase) is 300 to 1000 nM; the “maximum fold (Fold) increase” value is “**** (fold increase between >1.5 and ≤1.65)”. In addition, in series [2] (setting [3]), the EC (1.5-fold) was in the range of 0.3 to 1 µM.

The record behind these values is USRE47689E1, “Compounds for treating spinal muscular atrophy” (PTC Therapeutics, Inc., priority 2011, dated 2019).
